By IC50 is commonly meant the concentration that gives 50% inhibition. Read a low IC50 as higher potency.

These results are taken from patent publication US12187728B2 (Raze Therapeutics, Inc., priority 2015, dated 2025).

The assay has as its target T1, Human MTHFD2 (Homo sapiens, UniProt P13995).
T1 construct: residues 36-350 in Uniport ID P13995; His6 (N); made in house; host or cells: E. coli
T1 sequence (P13995 36-350): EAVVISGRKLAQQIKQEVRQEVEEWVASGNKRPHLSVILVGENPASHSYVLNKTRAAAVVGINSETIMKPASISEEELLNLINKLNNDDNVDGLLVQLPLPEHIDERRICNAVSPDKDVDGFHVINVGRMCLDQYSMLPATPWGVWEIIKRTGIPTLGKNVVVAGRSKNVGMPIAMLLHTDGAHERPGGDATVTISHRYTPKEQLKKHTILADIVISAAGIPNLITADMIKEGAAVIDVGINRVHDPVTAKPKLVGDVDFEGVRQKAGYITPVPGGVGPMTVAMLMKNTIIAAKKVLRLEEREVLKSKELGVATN
Put plainly: MTHFD2 Activity Assay (dehydrogenase activity, diaphorase/resazurin coupled fluorescence). The conditions noted are these: inhibitory activity (IC50 and/or binding constant); 0.2 nM MTHFD2, 11 concentrations. Type of assay: biochemical. In short, it runs like this:
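His6-tagged MTHFD2 (res. 36-350), E. coli-expressed, at 0.2 nM preincubated with compound 15 min in Hepes pH 8.0/MgCl2/KH2PO4 buffer; 70 μM CH2-THF, 1 mM NAD+ added with resazurin/diaphorase, 30 min, EDTA stop. Resorufin fluorescence (ex 525/em 598); IC50 from 11-point 4-parameter fit.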
(Resazurin is reduced to fluorescent resorufin, in cell work by metabolically active cells.)
In turn, `Cn1c(N[C@@H]2CCC[C@@H]2C(=O)O)nc2c1c(=O)n(Cc1ccc(Cl)c(Cl)c1)c(=O)n2C` [Example 111, (1S,2R)-2-(1-(3,4-dichlorobenzyl)-3,7-dimethyl-2,6-dioxo-2,3,6,7-tetrahydro-1H-purin-8-ylamino)cyclopentanecarboxylic acid] registered an IC50 of 10 to 1000 nM.

For `Cn1c(NC2CC(F)(F)C2)nc2c1c(=O)n(Cc1ccc(Cl)c(Cl)c1)c(=O)n2C` [Example 112, 1-(3,4-dichlorobenzyl)-8-(3,3-difluorocyclobutylamino)-3,7-dimethyl-1H-purine-2,6(3H,7H)-dione], the IC50 is 1000 to 5000 nM.

As for `Cn1c(N[C@@H]2CCCC[C@H]2O)nc2c1c(=O)n(Cc1ccc(C(F)(F)F)cc1)c(=O)n2C` [Example 113, 8-((1R,2R)-2-hydroxycyclohexylamino)-3,7-dimethyl-1-(4-(trifluoromethyl)benzyl)-1H-purine-2,6(3H,7H)-dione], the IC50 was greater than 10000 nM.

The compound `Cn1c(NCc2cnccn2)nc2c1c(=O)n(Cc1ccc(Cl)c(Cl)c1)c(=O)n2C` [Example 116, 1-(3,4-dichlorobenzyl)-3,7-dimethyl-8-(pyrazin-2-ylmethylamino)-1H-purine-2,6(3H,7H)-dione] displayed an IC50 of 1000 to 5000 nM. Turning to `Cn1c(NCc2cccnc2)nc2c1c(=O)n(Cc1ccc(Cl)c(Cl)c1)c(=O)n2C` [Example 117, 1-(3,4-dichlorobenzyl)-3,7-dimethyl-8-(pyridin-3-ylmethylamino)-1H-purine-2,6(3H,7H)-dione], the IC50 fell in the range of 1000 to 5000 nM. As for `Cn1c(NCc2ccncc2)nc2c1c(=O)n(Cc1ccc(Cl)c(Cl)c1)c(=O)n2C` [Example 118, 1-(3,4-dichlorobenzyl)-3,7-dimethyl-8-(pyridin-4-ylmethylamino)-1H-purine-2,6(3H,7H)-dione], the figure is 1000 to 5000 nM; as for `Cn1c(N[C@H](CO)CC2CCCCC2)nc2c1c(=O)n(Cc1ccc(C(F)(F)F)cc1)c(=O)n2C` [Example 120, (S)-8-(1-cyclohexyl-3-hydroxypropan-2-ylamino)-3,7-dimethyl-1-(4-(trifluoromethyl)benzyl)-1H-purine-2,6(3H,7H)-dione], greater than 10000 nM. As for `Cn1c(N[C@H](CO)CC2CCCCC2)nc2c1c(=O)n(Cc1ccc(Cl)c(Cl)c1)c(=O)n2C` [Example 121, (S)-8-(1-cyclohexyl-3-hydroxypropan-2-ylamino)-1-(3,4-dichlorobenzyl)-3,7-dimethyl-1H-purine-2,6(3H,7H)-dione], the figure is 10 to 1000 nM; as for `Cn1c(Nc2cccnn2)nc2c1c(=O)n(Cc1ccc(Cl)c(Cl)c1)c(=O)n2C` [Example 122, 1-(3,4-dichlorobenzyl)-3,7-dimethyl-8-(pyridazin-3-ylamino)-1H-purine-2,6(3H,7H)-dione], 10 to 1000 nM; as for `Cn1c(Nc2ncco2)nc2c1c(=O)n(Cc1ccc(Cl)c(Cl)c1)c(=O)n2C` [Example 123, 1-(3,4-dichlorobenzyl)-3,7-dimethyl-8-(oxazol-2-ylamino)-1H-purine-2,6(3H,7H)-dione], 5000 to 10000 nM.

`Cn1c(NC2(CO)CCCC2)nc2c1c(=O)n(Cc1ccc(Cl)c(Cl)c1)c(=O)n2C` [Example 124, 1-(3,4-dichlorobenzyl)-8-(1-(hydroxymethyl)cyclopentylamino)-3,7-dimethyl-1H-purine-2,6(3H,7H)-dione] had an IC50 of 10 to 1000 nM. For the compound `Cn1c(Nc2ccncc2)nc2c1c(=O)n(Cc1ccc(Cl)c(Cl)c1)c(=O)n2C` [Example 125, 1-(3,4-dichlorobenzyl)-3,7-dimethyl-8-(pyridin-4-ylamino)-1H-purine-2,6(3H,7H)-dione], the IC50 fell in the range of 10 to 1000 nM.

Compound `Cn1c(Nc2cnccn2)nc2c1c(=O)n(Cc1ccc(Cl)c(Cl)c1)c(=O)n2C` [Example 126, 1-(3,4-dichlorobenzyl)-3,7-dimethyl-8-(pyrazin-2-ylamino)-1H-purine-2,6(3H,7H)-dione] showed an IC50 of 10 to 1000 nM.

The compound `Cn1c(Nc2ccccc2)nc2c1c(=O)n(Cc1ccc(Cl)c(Cl)c1)c(=O)n2C` [Example 127, 1-(3,4-dichlorobenzyl)-3,7-dimethyl-8-(phenylamino)-1H-purine-2,6(3H,7H)-dione] registered an IC50 of 1000 to 5000 nM. With `Cn1c(NC2(CO)CCCC2)nc2c1c(=O)n(Cc1ccc(C(F)(F)F)cc1)c(=O)n2C` [Example 128, 8-(1-(hydroxymethyl)cyclopentylamino)-3,7-dimethyl-1-(4-(trifluoromethyl)benzyl)-1H-purine-2,6(3H,7H)-dione], the IC50 is greater than 10000 nM. Under `C[C@@H](Nc1nc2c(c(=O)n(Cc3ccc(Cl)c(Cl)c3)c(=O)n2C)n1C)C(=O)O` [Example 129, (R)-2-(1-(3,4-dichlorobenzyl)-3,7-dimethyl-2,6-dioxo-2,3,6,7-tetrahydro-1H-purin-8-ylamino)propanoic acid] stands 1000 to 5000 nM; under `Cn1c(Nc2cccc(C#N)c2)nc2c1c(=O)n(Cc1ccc(Cl)c(Cl)c1)c(=O)n2C` [Example 130, 3-(1-(3,4-dichlorobenzyl)-3,7-dimethyl-2,6-dioxo-2,3,6,7-tetrahydro-1H-purin-8-ylamino)benzonitrile], 1000 to 5000 nM; under `Cn1c(NCCC#N)nc2c1c(=O)n(Cc1ccc(Cl)c(Cl)c1)c(=O)n2C` [Example 131, 3-(1-(3,4-dichlorobenzyl)-3,7-dimethyl-2,6-dioxo-2,3,6,7-tetrahydro-1H-purin-8-ylamino)propanenitrile], 1000 to 5000 nM. Turning to `Cn1c(NCC(=O)O)nc2c1c(=O)n(Cc1ccc(Cl)c(Cl)c1)c(=O)n2C` [Example 134, 2-(1-(3,4-dichlorobenzyl)-3,7-dimethyl-2,6-dioxo-2,3,6,7-tetrahydro-1H-purin-8-ylamino)acetic acid], the IC50 was 1000 to 5000 nM. Under `Cn1c(Nc2cn[nH]c2)nc2c1c(=O)n(Cc1ccc(Cl)c(Cl)c1)c(=O)n2C` [Example 135] stands 1000 to 5000 nM. In turn, `Cn1c(-n2cc(N)cn2)nc2c1c(=O)n(Cc1ccc(Cl)c(Cl)c1)c(=O)n2C` [Example 136] registered an IC50 of 10 to 1000 nM. `Cn1c(NCc2ccccc2)nc2c1c(=O)n(Cc1ccc(Cl)c(Cl)c1)c(=O)n2C` [Example 137, 8-(benzylamino)-1-(3,4-dichlorobenzyl)-3,7-dimethyl-1H-purine-2,6(3H,7H)-dione]: the IC50 was 5000 to 10000 nM. `Cn1c(Nc2nccc(O)n2)nc2c1c(=O)n(Cc1ccc(Cl)c(Cl)c1)c(=O)n2C` [Example 138, 1-(3,4-dichlorobenzyl)-8-(4-hydroxypyrimidin-2-ylamino)-3,7-dimethyl-1H-purine-2,6(3H,7H)-dione] came in with an IC50 of 10 to 1000 nM. Under `Cn1c(NCc2ccccn2)nc2c1c(=O)n(Cc1ccc(Cl)c(Cl)c1)c(=O)n2C` [Example 139, 1-(3,4-dichlorobenzyl)-3,7-dimethyl-8-(pyridin-2-ylmethylamino)-1H-purine-2,6(3H,7H)-dione] stands 1000 to 5000 nM.

Consider `Cn1c(Nc2cc[nH]c(=O)n2)nc2c1c(=O)n(Cc1ccc(Cl)c(Cl)c1)c(=O)n2C` [Example 140, 1-(3,4-dichlorobenzyl)-3,7-dimethyl-8-(2-oxo-1,2-dihydropyrimidin-4-ylamino)-1H-purine-2,6(3H,7H)-dione], for which the IC50 lay within 10 to 1000 nM.

Consider `Cn1c(Nc2cc[nH]n2)nc2c1c(=O)n(Cc1ccc(Cl)c(Cl)c1)c(=O)n2C` [Example 141, 8-(1H-pyrazol-3-ylamino)-1-(3,4-dichlorobenzyl)-3,7-dimethyl-1H-purine-2,6(3H,7H)-dione], for which the IC50 is 1000 to 5000 nM.
